Experimental data as given in patent publication US11142548B2, “Agents that activate CD47 and their use in the treatment of inflammation” (SORBONNE UNIVERSITE, priority 2016, dated 2021).

Legend:
Format in all cases: in vivo, mouse
microglial cells = assay: Subretinal adoptive transfer and clearance of CFSE-labeled microglial cells; settings: 24 h after subretinal transfer into wildtype mice, co-injected TSP1 10 μg/ml
Description: Microglial cells were prepared from PBS-perfused mice. After dissociation of brain or retina with Neural Dissociation Kit Papain (miltenyi Biotech), 70 μm filtered cell suspensions were washed and resuspended in 75% isotonic Percoll (Percoll Plus, GE Healthcare), overlayed with 25% Percoll and PBS. Cells were centrifuged at 1000 g for 30 min at […]. The ring at the 75%/25% interface was collected, washed with PBS and centrifuged.
According to Levy et al., (EMBO Mol Med. 2015, 7:211-226), brain microglia of the indicated mouse strains were sorted as describe above, labeled in 10 μM CFSE (Life Technologies), washed and resuspended in PBS, 12000 cells (4 μL) were injected using glass microcapillaries (Eppendorf) and a microinjector in the subretinal space of anesthetized 10-14 weeks old wildtype mice. A hole was pierced with the glass capillary prior to the subretinal injection to avoid intra-ocular pressure increase and to allow retinal detachment with 4 μL of solution. The subretinal injection was verified by fundoscopy. In specific experiments, cells were co-injected with recombinant human TSP1 (10 μg/ml, R&D Systems), Eyes were enucleated after 24 hours, fixed in PFA 4% 30 minutes and labeled with DAPI. Eyes with hemorrhages were discarded. CFSE+cells in the subretinal space were quantified on flatmounts on the RPE side of the retina and on the apical side of the RPE.

[1] = tested on: subretinal IBA-1+ mononuclear monocytes; assay: Laser-induced subretinal inflammation in wildtype- and Tsp1-/- mice; settings: wildtype- and Tsp1-/- mice, intravitreal at d3, d7; FIG. 3 statistics given for Tsp1-/- mice vs PBS
Description: Laser-coagulations were performed with a 532 nm ophtalmological laser mounted on an operating microscope (Vitra Laser, 532 nm, 450 mW, 50 ms, and 250 μm): Intravitreal injections of 2 μl of HTRA1 and/or TSP1 were performed using glass capillaries (Eppendorf) and a micro injector. The 2 μl injection solution contained 50 μg/ml TSP1 and HTRA1, corresponding to an intraocular concentration of 5 μg/ml of each protein assuming their dilution by approximately 1/10th in the intra-ocular volume. […] A volume of 2 μl of a 100 μM solution of either PBS, recombinant TSP1 (10 μg/ml), the 4NGG control peptide or the CD47-activating peptide PKT16 (200 μM) was injected at day 4 (when MP infiltration is maximal) and day 7 after the injury and evaluated subretinal inflammation on flatmounted RPE/choroidal flatmounts at day 10.
Eyes were enucleated, fixed in 4% PFA 30 minutes and sectioned at the limbus; the cornea and lens were discarded. […] Choroids and retinas were flatmounted and viewed with a fluorescence microscope DM5500B (Leica). IBA-1+ cells were counted on whole RPE/choroidal flatmounts and on the outer segment side of the retina. […]

[2] = tested on: recruited monocyte-derived inflammatory macrophages (recMφ); assay: Thioglycollate-induced peritonitis; settings: single intra-peritoneal injection at day 1, observed at day 2
Description: Mouse peritoneal exudate cells (PECs) were elicited by i.p. injection of 0,5 ml 3% thioglycollate (T9032, Sigma) into 10 weeks old male C57BL/6J and Cd47^−/− mice. After 1 day, PECs were isolated by flushing of the peritoneum with ice-cold PBS, Mφs were negatively selected by magnetic sorting following the manufacturers protocol (EasySep Mouse Monocyte Enrichment Kit, Stemcell Technologies), resuspended in X-VIVO 15 medium (Lonza), and plated in Lab-Tek® Chamber Slide™ (Nunc®).
To test whether CD47 influences inflammation resolution in other pathological contexts, a model of acute thioglycollate-induced peritonitis was used, characterized by an early accumulation of neutrophils, followed by recruited monocyte-derived inflammatory macrophages (recMφ), both experiencing an apoptosis-driven elimination at different kinetics (Gautier et al., Blood. 2013, 122:2714-2722).

With “recombinant TSP1: recombinant human TSP1 (R&D Systems), natural ligand and agonist of CD47” the “elimination of Cd47-/- microglial cells” value (microglial cells; CFSE+ Cd47-/- microglial cells) was “no effect”, the “elimination of Tsp1-/- microglial cells” value (microglial cells; CFSE+ Tsp1-/- microglial cells) was “reversed the phenotype” and the “elimination of wildtype microglial cells” value (microglial cells; CFSE+ wildtype microglial cells) was “very significantly accelerated the elimination”. The “reduction of laser-induced subretinal inflammation” value [1] was “significantly reduces” and the “elimination of recMφs” value [2] was “significantly accelerated the elimination”.
